Results taken from article PMC12845078 (Pharmaceuticals, 2025).
Marks after values point to notes of the source that are not given here.

Key:
[1] = Pharmacokinetics of MT, 6-HMT and CBD in beagles after oral administration; details: male, beagle, dog, in vivo, po, 3 mg/kg, p.o.; for AUC(0-t) / AUC(0-inf) / Cmax / MRT last / Tmax: beagles; for MRT last: MRT(0–t); for half-life: t1/2, beagles
Description: Twelve male healthy adult beagles (weighing 10 ± 2 kg) were randomly divided into two groups. […] The drugs were dissolved in a physiological saline solution containing 5% castor oil, with an administration volume of 2 mL/kg. Blood samples were collected at the time points of pre-administration and 0.083, 0.25, 0.5, 0.75, 1, 1.5, 2, 4, 6, 8, and 12 h post-administration.
(§1) The column temperature was set at 40 °C.

[2] = Pharmacokinetics of MT, 6-HMT and CBD in SD rats (i.v. and oral); details: for MRT last: MRT(0–t)
Description: The drugs were dissolved in the same manner as described previously, with an administration volume of 5 mL/kg for all groups. Blood samples were collected at the time points of pre-administration and 0.033 (only for the intravenous administration group), 0.083, 0.25, 0.5, 0.75, 1, 1.5, 2, 4, 6, 8, and 12 h post-administration.
as §1

[3] = molecular target: T1, PEPT1 (Homo sapiens, UniProt P46059); assay: Uptake and uptake inhibition in MDCK/hPEPT1 cell model; assay type: cell-based; details: 4 °C and 37 °C
T1 construct: host or cells: MDCK
T1 sequence (P46059 1-708): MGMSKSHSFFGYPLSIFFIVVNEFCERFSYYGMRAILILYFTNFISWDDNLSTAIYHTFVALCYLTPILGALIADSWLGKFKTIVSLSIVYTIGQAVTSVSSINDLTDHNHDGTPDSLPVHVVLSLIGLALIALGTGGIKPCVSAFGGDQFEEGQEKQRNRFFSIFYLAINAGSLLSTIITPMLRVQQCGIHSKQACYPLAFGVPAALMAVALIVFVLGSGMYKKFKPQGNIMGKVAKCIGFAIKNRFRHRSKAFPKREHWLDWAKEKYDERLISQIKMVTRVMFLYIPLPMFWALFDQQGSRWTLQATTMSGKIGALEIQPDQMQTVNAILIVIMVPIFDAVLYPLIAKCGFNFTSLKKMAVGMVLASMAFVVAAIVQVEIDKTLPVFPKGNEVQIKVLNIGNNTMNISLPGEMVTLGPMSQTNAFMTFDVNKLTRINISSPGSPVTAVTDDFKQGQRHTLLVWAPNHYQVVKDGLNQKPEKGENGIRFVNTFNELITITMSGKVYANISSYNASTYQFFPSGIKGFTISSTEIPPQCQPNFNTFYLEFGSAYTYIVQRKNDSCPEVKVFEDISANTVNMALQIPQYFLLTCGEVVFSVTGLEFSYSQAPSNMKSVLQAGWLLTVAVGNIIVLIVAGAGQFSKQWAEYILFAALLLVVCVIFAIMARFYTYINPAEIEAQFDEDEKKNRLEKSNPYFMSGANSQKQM
Description: MDCK-PEPT1 cells were seeded into 24-well plates at a density of approximately 5 × 10^5 cells per well. When the cell confluency reached 60–70%, the culture medium was aspirated, and the cells were rinsed twice with HBSS pre-warmed to 37 °C. […] After incubation at 37 °C for 10 min, the buffer was aspirated, and ice-cold HBSS was immediately added to terminate the reaction, followed by rinsing three times. After drying the residual liquid, 200 μL of pure water were added to each well, and the cells were lysed by repeated freezing–thawing in liquid nitrogen three times. The cell lysates were collected, and the protein content was determined by the BCA method.
Cell uptake assessment: The concentration of the analyte in cells was corrected using the protein concentration of the cell lysate in each well.(4) Conclysate=Concdrug/ConcProtein
The uptake rate (U, pmol/mg/min) of the compound was calculated following Formula (5).(5) U=Clysate/P×t where Clysate is the amount of drug in the cell lysate (ng); P is cellular protein content (mg); t is incubation time (min).
The uptake ratio of the compound was calculated following Formula (6)(6) UR=U/ UMOCK where UMOCK is the uptake rate in MOCK-MDCK cells (pmol/mg/min).
The inhibition ratio was calculated following Formula (7)(7) IR=(1−Uwith inhibitor−Umock with inhibitor/Uwithout inhibitor−Umock without inhibitor)×100%

[4] = Plasma protein binding (rapid equilibrium dialysis), rat; assay type: in vitro ADME; details: plasma, pH 7.4
Description: (§3) After incubation for 20 min, a portion of the whole blood was centrifuged at 2500× g for 10 min at 4 °C to separate plasma; another portion of the whole blood was subjected to three cycles of freeze–thawing and ultrasonicated for 10 min to disrupt cells. Equal volumes of plasma and whole blood samples were added to the whole blood and plasma specimens, respectively, followed by protein precipitation with acetonitrile containing an internal standard (IS). […] The RED inserts were placed in the matching incubation plate: 200 µL of drug-containing matrix were added to the sample chamber, and 400 µL of PBS buffer (pH: 7.4) were added to the buffer chamber. After incubation in a constant-temperature shaking incubator for 6 h (37 °C), samples from the sample chamber and buffer chamber were diluted 1:1 with PBS or matrix, respectively, and proteins were precipitated with acetonitrile containing IS.

[5] = Plasma protein binding (rapid equilibrium dialysis), mouse; assay type: in vitro ADME; details: pH 7.4
Description: as §3

[6] = Plasma protein binding (rapid equilibrium dialysis), human; assay type: in vitro ADME; details: pH 7.4, read-out: Plasma Protein Binding (converted)
Description: as §3

[7] = Liver microsome protein binding, rat; assay type: in vitro ADME; details: liver microsomes, pH 7.4
[8] = Liver microsome protein binding, dog; assay type: in vitro ADME; details: beagle, liver microsomes, pH 7.4
Description: as §3

[9] = Liver microsome protein binding, human; assay type: in vitro ADME; details: liver microsomes, pH 7.4
Description: as §3

[10] = Brain tissue protein binding, rat; assay type: in vitro ADME; details: pH 7.4
Description: as §3

[11] = tested on: CYP1A2-mediated metabolism of MT; assay: Static DDI model prediction of CBD's impact on MT exposure, rat; details: input of static DDI model
Excerpt: (§2) (AUC when co-administered with the inhibitor) to AUC[contr] (AUC without the inhibitor).

[12] = tested on: CYP1A2-mediated metabolism of MT; assay: Static DDI model prediction of CBD's impact on MT exposure, beagle; set-up: species or system beagle dog; details: input of static DDI model
Excerpt: as §2

[13] = Plasma protein binding (rapid equilibrium dialysis), dog; details: beagle, dog, plasma, pH 7.4
Description: as §3

[14] = Pharmacokinetics of MT and CBD in rats after pre-administration of ABT
Description: Twelve SD rats were randomly divided into two groups. Both groups were first given an intragastric administration of 1-aminobenzotriazole (ABT) at a dose of 200 mg/kg. […] The administration volume for all groups was 5 mL/kg. […] Approximately 50 μL of venous blood were collected into heparin sodium anticoagulant tubes and placed on ice. The sample processing and storage methods were the same as described previously.
Subsequently, the resultant mixture was vortexed for 1 minute and centrifuged at 4 °C for 10 min at 18,800× g. […] The lowest limit of quantification (LLOQ) was established at 2 ng/mL.
Kromasil 100-5-C8 (2.1 × 50 mm) was selected for the separation of samples. The mobile phase consisted of solvent A (water with 0.1% formic acid and 5 mM ammonium acetate) and solvent B (methanol with 0.1% formic acid). […] The column temperature was set at 40 °C. The two eluents were 0.1% formic acid and 5 mM ammonium acetate in water (A) and 0.1% formic acid in methanol (B). […] The main mass spectrometry detection parameters were: dry gas 10 L/min, heated gas 10 L/min, collision gas 270 kPa, ion source temperature 300 °C, desolvation temperature 250 °C, and heating module temperature 400 °C.
Pharmacokinetic parameters: GraphPad Prism 10.1 software was utilized to draw the curves. Noncompartmental analysis was selected to calculate the major PK parameters, including clearance (CL), volume (V), half-life (t1/2), peak concentration (Cmax), and area under the curve (AUC), using WinNonlin 8.1.

[15] = male, Sprague-Dawley, rat, in vivo, po, 5 mg/kg, rats, p.o., MT + CBD (5 + 5) mg/kg
[16] = male, Sprague-Dawley, rat, in vivo, po, 5 mg/kg, rats, p.o., MT + CBD (5 + 20) mg/kg
[17] = male, Sprague-Dawley, rat, in vivo, po, 5 mg/kg, rats, p.o., MT + Vehicle 5 mg/kg
[18] = Sprague-Dawley, rat, in vivo, po, 5 mg/kg

Molecule `COc1ccc2[nH]cc(CCNC(C)=O)c2c1` [MT, Melatonin] has an AUC(0-t) ([1]; MT + CBD (3 + 3) mg/kg) of 2540 ng·h/mL, an AUC(0-t) ([1]; MT + Vehicle 3 mg/kg) of 602 ng·h/mL and an AUC(0-inf) ([1]; MT + CBD (3 + 3) mg/kg) of 2550 ng·h/mL. It also gave an AUC(0-inf) ([1]; MT + Vehicle 3 mg/kg) of 612 ng·h/mL, a Cmax ([1]; MT + CBD (3 + 3) mg/kg) of 1360 ng/mL and a Cmax ([1]; MT + Vehicle 3 mg/kg) of 1080 ng/mL. It also gave an MRT last ([1]; MT + CBD (3 + 3) mg/kg) of 99.6 min, an MRT last ([1]; MT + Vehicle 3 mg/kg) of 30 min and a Tmax ([1]; MT + CBD (3 + 3) mg/kg) of 42.6 min. It also gave a Tmax ([1]; MT + Vehicle 3 mg/kg) of 13.2 min, a half-life ([1]; MT + CBD (3 + 3) mg/kg) of 55.2 min and a half-life ([1]; MT + Vehicle 3 mg/kg) of 19.8 min. The AUC(0-t) ([2]; male, Sprague-Dawley, rat, in vivo, iv, 1 mg/kg, AUC(0–t), rats, i.v., MT + CBD (1 + 1) mg/kg) was 260 ng·h/mL, the MRT last ([2]; male, Sprague-Dawley, rat, in vivo, iv, 1 mg/kg, rats, i.v., MT + CBD (1 + 1) mg/kg) was 10.2 min and the bioavailability ([2]; male, Sprague-Dawley, rat, in vivo, po, 5 mg/kg) was 20.5%. It also gave an AUC(0-t) ([2]; male, Sprague-Dawley, rat, in vivo, po, 5 mg/kg, AUC(0–1h), rats, p.o., MT + CBD (5 + 5) mg/kg) of 114 ng·h/mL, an AUC(0-t) ([2]; male, Sprague-Dawley, rat, in vivo, po, 5 mg/kg, AUC(0–1h), rats, p.o., MT + CBD (5 + 20) mg/kg) of 65.2 ng·h/mL and an AUC(0-t) ([2]; male, Sprague-Dawley, rat, in vivo, po, 5 mg/kg, AUC(0–1h), rats, p.o., MT + Vehicle 5 mg/kg) of 241 ng·h/mL. It also gave an AUC(0-t) ([2]; male, Sprague-Dawley, rat, in vivo, po, 5 mg/kg, AUC(0–t), rats, p.o., MT + CBD (5 + 5) mg/kg) of 138 ng·h/mL, an AUC(0-t) ([2]; male, Sprague-Dawley, rat, in vivo, po, 5 mg/kg, AUC(0–t), rats, p.o., MT + CBD (5 + 20) mg/kg) of 121 ng·h/mL and an AUC(0-t) ([2]; male, Sprague-Dawley, rat, in vivo, po, 5 mg/kg, AUC(0–t), rats, p.o., MT + Vehicle 5 mg/kg) of 267 ng·h/mL. The Cmax [2, 15] was 212 ng/mL, the Cmax [2, 16] was 99 ng/mL and the Cmax [2, 17] was 588 ng/mL. The MRT last [2, 15] was 39 min, the MRT last [2, 16] was 79.8 min and the MRT last [2, 17] was 40.2 min. For the same molecule, the Tmax [2, 15] was 19.8 min, the Tmax [2, 16] was 8.4 min and the Tmax [2, 17] was 10.2 min. The “effect of co-administered MT on pharmacokinetic parameters of CBD” value ([2]; rats, p.o., CBD 20 mg/kg with MT 0, 5 or 20 mg/kg) was “does not produce obvious pharmacokinetic-based interactions with CBD”, the t1/2 ([2]; rats, p.o., MT + CBD (5 + 5) mg/kg) was 0.66 (0.14) h and the t1/2 ([2]; rats, p.o., MT + CBD (5 + 20) mg/kg) was 1.80 (0.94) * h. For the same molecule, the “MT total exposure with CBD, as percent of MT alone” value ([2]; rats, p.o., high CBD dose) was 45%, the “uptake rate of MT, MOCK cells vs transfected cells” value [3] was “no difference” and the fraction unbound at 6 h [4] was 0.425. For the same molecule, the fraction unbound at 6 h [5] was 0.451, the fraction unbound at 6 h [6] was 0.388 and the fraction unbound at 6 h [7] was 0.972. It also gave a fraction unbound at 6 h [8] of 0.78, a fraction unbound at 6 h [9] of 0.979 and a fraction unbound at 6 h [10] of 0.315. For the same molecule, the “fm(CYP1A2), proportion of MT metabolized by CYP1A2” value [11] was 0.92, the “fm(CYP1A2), proportion of MT metabolized by CYP1A2” value [12] was 0.92 and the fraction unbound at 6 h [13] was 0.364. For the same molecule, the “AUC of MT reduced by co-administration of CBD” value ([14]; ABT-treated rats) was 2.29 fold, the “Cmax of MT reduced by co-administration of CBD” value ([14]; ABT-treated rats) was 2.3 fold and the AUC(0-t) [14, 18] was 8840 ng·h/mL. The Cmax [14, 18] was 2100 ng/mL, the Tmax [14, 18] was 30 min and the half-life [14, 18] was 78.6 min.
